Molecules are shown by their SMILES. Read-outs that look alike come from different tables or passages of the source. Where only a bound is given, the exact number is not on record here.

Series [1] can be described thus: first dissolution test in DMSO or water. Conditions: for dissolution in the first dissolution test: DMSO or water; for Total volume of DMSO for dissolving the p-TSA derivatives / Total volume of water for dissolving the p-TSA derivatives: first dissolution test, amount for a 3M solution in 0.5 mL, up to 15000 μL; for solubility: thermodynamic from solid. On the procedure: Each of the powder of p-TSA derivatives was duplicated, placed in each 15 mL centrifuge tube, followed by adding 200 μL DMSO or 200 μL water and shaking for 10 to 20 seconds for dissolution observation. If the powder was not dissolved, additional DMSO or water was added, and then the mixture was shaken. The tube was left to stand for 10 minutes for observation if the powder was still not dissolved after adding 1 mL DMSO or 1 mL water. If the powder was still not dissolved after adding 5 mL DMSO or 5 mL water, additional 1 mL DMSO or 1 mL water was added, and then the mixture was shaken for 30 seconds. If the powder was still not dissolved after adding 10 mL DMSO or 10 mL water, the tube was left to stand for 12 to 16 hours and observed on the next day. DMSO or water was added into the tube having the undissolved p-TSA derivatives up to 15 mL, followed by shaking for 30 minutes for observation.

Series [2] has as its system human non-small-cell lung cancer cell lines H460. Nature of the series: SRB growth inhibition of lung cancer cells. It is filed as cell-based. Conditions: 48 hours, SRB. On the procedure: (§1) After letting to stand for 10 minutes at room temperature, the supernatant of each well was removed, and each well was washed with 200 μL H2O once. […] Each of the plates was then placed in the laminar flow cabinet for 1 hour for air dry. 50 μL 0.4% sulforhodamine B (SRB) dye was added into each well of the 96-well plate. […] Each of the plates was then placed in the laminar flow cabinet for 40 minutes to 1 hour for air dry. 1×Tris-Base solution with pH 7.0 to 7.4 was added to each well of the 96-well plate to dissolve the protein complex formed in the bottom of each well, followed by tapping the 96-well plate, allowing the complex in each well to be dissolved uniformly. Absorption of each well under 515 nm was read. […] Each of the experimental group was performed in triplet.

A short description of series [3]: second dissolution test in DMSO or water. Type of series: physicochemical. As to conditions: for dissolution in the second dissolution test: 100 mg powder, DMSO or water; for Total volume of DMSO for dissolving the p-TSA derivatives / Total volume of water for dissolving the p-TSA derivatives: second dissolution test, 0.1 g powder. How it is done: A second dissolution test was performed for the undissolved p-TSA derivatives. Each of 100 mg p-TSA derivatives powder was placed in each of the scintillation vial, followed by adding 500 μL DMSO or 500 μL water and shaking for 30 seconds for dissolution observation.

Series [4] has as its system human liver cancer cell lines Hep3B. The experiment in a line: SRB growth inhibition of liver cancer cells. It is filed as cell-based. As to conditions: 48 hours, SRB. How it is done: as §1
Where [5] appears, read: Homo sapiens, NCI-H460, 48 h, derivative dissolved in DMSO, read-out: IC50 of H460 in DMSO.
Setting [6] is: Homo sapiens, Hep3B, 48 h, derivative dissolved in DMSO, read-out: IC50 of Hep3B in DMSO.
Where [7] appears, read: Homo sapiens, NCI-H460, 48 h, derivative dissolved in water, read-out: IC50 of H460 in water.
[8] abbreviates: Homo sapiens, Hep3B, 48 h, derivative dissolved in water, read-out: IC50 of Hep3B in water.
[9] abbreviates: derivative dissolved in DMSO, read-out: IC50 of H460 in DMSO.
Where [10] appears, read: derivative dissolved in DMSO, read-out: IC50 of Hep3B in DMSO.

For the compound `Cc1ccc(S(=O)(=O)NCCF)cc1` [PTSA049], the “dissolution in the first dissolution test” value in series [1] is “not dissolved in DMSO or water”. The “Total volume of DMSO for dissolving the p-TSA derivatives” value in series [1] (DMSO) is reported as “insoluble in 15000 μL”; in series [3], 9.5 mL. Also, the “Total volume of water for dissolving the p-TSA derivatives” value in series [1] (water) is reported as “insoluble in 15000 μL”; in series [3] it was “insoluble in 20 mL”. The IC50 in series [2] (setting [5]) and in series [4] (setting [6]) was more than 0.174 mM throughout. In addition, in series [3], the “dissolution in the second dissolution test” value is on record as “dissolved in both of”.

For the compound `Cc1ccc(S(=O)(=O)N2CC(=NNC(=O)C3CN(S(=O)(=O)c4ccc(C)cc4)C3)C2)cc1` [PTSA073], in series [1], the “dissolution in the first dissolution test” value is reported as “not dissolved in DMSO or water”. The “Total volume of DMSO for dissolving the p-TSA derivatives” value in series [1] (DMSO) is “insoluble in 15000 μL”. In addition, the “Total volume of water for dissolving the p-TSA derivatives” value in series [1] (water) is “insoluble in 15000 μL”. Moreover, in series [3], the “dissolution in the second dissolution test” value is “dissolved in both of”, the “Total volume of DMSO for dissolving the p-TSA derivatives” value is 4.04 mL and the “Total volume of water for dissolving the p-TSA derivatives” value is reported as “insoluble in 20 mL”.

Turning to `Cc1ccc(S(=O)(=O)N2CCC(O)CC2)cc1` [PTSA032], the “Total volume of DMSO for dissolving the p-TSA derivatives” value in series [1] (DMSO) was “insoluble in 15000 μL”; in series [3] it was “insoluble in 20 ml mL”; in series [3] (listed as PTSA0032), more than 20 mL. Moreover, the “Total volume of water for dissolving the p-TSA derivatives” value is “insoluble in 15000 μL” in series [1] (water), “insoluble in 20 mL” in series [3] and more than 20 mL in series [3] (listed as PTSA0032). Further, the “Dissolution of p-TSA derivatives (in DMSO and/or water)” value in series [1] (overall result of first and second dissolution tests, category is the column head of Table 3) is “not dissolved in neither DMSO nor water”.

Take `Cc1ccc(S(=O)(=O)NCCO)cc1` [PTSA020]: the “Total volume of DMSO for dissolving the p-TSA derivatives” value in series [1] (DMSO) amounted to 490 µL. Further, the “Total volume of water for dissolving the p-TSA derivatives” value in series [1] (water) is 10000 µL. Besides, the IC50 (usually the concentration at which inhibition is half-maximal) in series [2] (setting [5]) is 2.61 mM; in series [2] (setting [7]), more than 1 mM; in series [4] (setting [6]), 2.65 mM; in series [4] (setting [8]) it was more than 1 mM.

Turning to `CC(=O)NS(=O)(=O)c1ccc(C)cc1` [PTSA002], the “dissolution in the first dissolution test” value in series [1] was “not dissolved in DMSO or water”. The “Total volume of DMSO for dissolving the p-TSA derivatives” value is reported as “insoluble in 15000 μL” in series [1] (DMSO) and 8 mL in series [3]. Further, the “Total volume of water for dissolving the p-TSA derivatives” value in series [1] (water) was “insoluble in 15000 μL”; in series [3] it was 5.25 mL. Also, the concentration for half-maximal inhibition (IC50) in series [2] (setting [7]) was more than 6.03 mM; in series [2] (setting [9]) it was more than 0.27 mM; in series [4] (setting [8]), more than 6.03 mM; in series [4] (setting [10]) it was more than 0.27 mM. Besides, in series [3], the “dissolution in the second dissolution test” value was “dissolved in both of”.

As for `Cc1ccc(S(=O)(=O)NC2CCN(Cc3ccccc3)CC2)cc1.Cl` [PTSA052i], the solubility (usually how much of the substance goes into solution per volume) was 143 mg/mL in series [1] (DMSO, organic solvent or mixture) and less than 50 mg/mL in series [1] (water). Also, the “Total volume of DMSO for dissolving the p-TSA derivatives” value in series [1] (DMSO) is 4000 µL. Also, the “Total volume of water for dissolving the p-TSA derivatives” value in series [1] (water) is on record as “insoluble in 15000 μL”. The values for the IC50 in series [2] (setting [5]) and in series [4] (setting [6]) were 0.141 mM and 0.137 mM, respectively.

Turning to `CCOC(=O)NS(=O)(=O)c1ccc(C)cc1` [PTSA015], the “Total volume of DMSO for dissolving the p-TSA derivatives” value in series [1] (DMSO) amounted to 815 µL. Further, in series [1] (water), the “Total volume of water for dissolving the p-TSA derivatives” value came out at 500 µL. Besides, the IC50 in series [2] (setting [7]) is 4.96 mM; in series [2] (setting [9]), 4.79 mM; in series [4] (setting [10]) it was 5.77 mM.

Turning to `Cc1ccc(S(=O)(=O)NC[C@@H](O)CO)cc1` [PTSA027], the “Total volume of DMSO for dissolving the p-TSA derivatives” value in series [1] (DMSO) amounted to 575 µL. The “Total volume of water for dissolving the p-TSA derivatives” value in series [1] (water) is reported as “insoluble in 15000 μL”. The results for the IC50 in series [2] (setting [5]) and in series [4] (setting [6]) were 5.35 mM and 4.1 mM, respectively.

Consider `Cc1ccc(S(=O)(=O)N2CC(N)C2)cc1.Cl` [PTSA074], for which the “Total volume of DMSO for dissolving the p-TSA derivatives” value in series [1] (DMSO) stood at 2500 µL. In addition, the “Total volume of water for dissolving the p-TSA derivatives” value in series [1] (water) worked out at 10000 µL. Moreover, the IC50 was more than 1.8 mM in series [2] (setting [5]), 2.22 mM in series [2] (setting [7]), more than 1.8 mM in series [4] (setting [6]) and 2.13 mM in series [4] (setting [8]).

The record behind these values is US10485773B2, “Benzenesulfonamide derivatives and method for treating cancer” (GONGWIN BIOPHARM HOLDINGS CO., LTD., priority 2016, dated 2019).
